This is an account of results in ChEMBL document CHEMBL1158732, “Intercedensides D-I, cytotoxic triterpene glycosides from the sea cucumber Mensamaria intercedens Lampert” (2005).

One assay concerns A549. The assay is described as follows: Cytotoxicity against human A549 cells by SRB method. It is filed as functional. The note with it: read-out: ED50 (the source's name). In general terms: Sulforhodamine B stains cellular protein and so reports cell mass.
The next assay deals with PC-3. The assay is described as follows: Cytotoxicity against human PC3 cells by SRB method. The class given is functional. The settings on record: read-out: ED50 (the source's name).
The subject of a further assay is MCF7. As to the kind of experiment: Cytotoxicity against human MCF7 cells by SRB method. The class given is functional. The note with it: read-out: ED50 (the source's name).
For a further assay, the system named is KB. The assay is described as follows: Cytotoxicity against human KB cells by SRB method. The class given is functional. The note with it: read-out: ED50 (the source's name).
In a further assay the test system is CAKI-1. As to the kind of experiment: Cytotoxicity against human Caki1 cells by SRB method. The class given is functional. The settings on record: read-out: ED50 (the source's name).
In another assay the test system is HCT-8. The assay is described as follows: Cytotoxicity against human HCT8 cells by SRB method. The settings on record: read-out: ED50 (the source's name). The class given is functional.
Assay [1] can be described thus: Cytotoxicity against human U87MG cells by SRB method. It is filed as functional, U-87MG ATCC. The settings on record: U-87 MG, read-out: ED50 (the source's name).
The nature of assay [2]: Cytotoxicity against human KBVIN cells by SRB method. The class given is functional. The settings on record: read-out: ED50 (the source's name).
In a further assay the test system is 1A9. As to the kind of experiment: Cytotoxicity against human 1A9 cells by SRB method. The settings on record: read-out: ED50 (the source's name). It is filed as functional.
A further assay concerns SK-MEL-2. The assay is described as follows: Cytotoxicity against human SK-MEL-2 cells by SRB method. The class given is functional. The note with it: read-out: ED50 (the source's name).

Regarding `CO[C@@H]1[C@@H](O)[C@H](O[C@@H]2[C@@H](O)[C@H](O[C@H]3[C@H](O)[C@@H](O)[C@H](O[C@H]4[C@H](O[C@H]5CC[C@]6(C)[C@@H]7CC[C@]89C(=O)O[C@@](C)(CCC=C(C)C)[C@@]8(O)[C@@H](OC(C)=O)C[C@@]9(C)C7=CC[C@H]6C5(C)C)OC[C@@H](OS(=O)(=O)[O-])[C@@H]4O)O[C@@H]3CO)OC[C@H]2O)O[C@H](CO)[C@H]1O.[Na+]` [INTERCEDENSIDE F], the EC50 is 1.7 µg/mL in the assay on A549; 2.3 µg/mL with PC-3; 2.1 µg/mL in the assay on MCF7; 3.2 µg/mL with KB; 1.7 µg/mL in the assay on CAKI-1; 1.9 µg/mL in the assay with HCT-8. Also, the EC50 in assay [1] worked out at 3.3 µg/mL; in assay [2] it was 3.2 µg/mL; in the assay on 1A9 it was 1.7 µg/mL; with SK-MEL-2, 2.1 µg/mL.

As for `CO[C@@H]1[C@@H](O)[C@H](O[C@@H]2[C@@H](O)[C@H](O[C@H]3[C@H](O)[C@@H](O)[C@H](O[C@H]4[C@H](O[C@H]5CC[C@]6(C)[C@@H]7CC[C@]89C(=O)O[C@@](C)(/C=C\C=C(C)C)[C@@]8(O)[C@@H](OC(C)=O)C[C@@]9(C)C7=CC[C@H]6C5(C)C)OC[C@@H](OS(=O)(=O)[O-])[C@@H]4O)O[C@@H]3C)OC[C@H]2O)O[C@H](CO)[C@H]1O.[Na+]` [LNTERCEDENSIDE H], the EC50 came out at 1.4 µg/mL in the assay on A549; 2.2 µg/mL in the assay on PC-3; 1.8 µg/mL in the assay with MCF7; 3 µg/mL in the assay on KB; 1 µg/mL in the assay on CAKI-1; 1.9 µg/mL with HCT-8. In addition, the EC50 was 3.2 µg/mL in assay [1], 3.7 µg/mL in assay [2], 0.96 µg/mL with 1A9 and 2.2 µg/mL in the assay with SK-MEL-2.

As for `CO[C@@H]1[C@@H](O)[C@H](O[C@@H]2[C@@H](O)[C@H](O[C@@H]3CO[C@@H](O[C@H]4[C@H](O[C@H]5CC[C@]6(C)[C@@H]7CC[C@]89C(=O)O[C@@](C)(/C=C\C=C(C)C)[C@@]8(O)[C@@H](OC(C)=O)C[C@@]9(C)C7=CC[C@H]6C5(C)C)OC[C@@H](OS(=O)(=O)[O-])[C@@H]4O)[C@H](O)[C@H]3O)OC[C@H]2O)O[C@H](CO)[C@H]1O.[Na+]` [LNTERCEDENSIDE E], the EC50 in the assay with A549 worked out at 1.4 µg/mL; in the assay with PC-3, 1.7 µg/mL; with MCF7, 1.4 µg/mL; in the assay on KB, 1.9 µg/mL; in the assay with CAKI-1, 1.6 µg/mL; in the assay with HCT-8 it was 1.1 µg/mL. In addition, the EC50 came out at 2.1 µg/mL in [1], 2 µg/mL in assay [2], 1.7 µg/mL in the assay on 1A9 and 1.6 µg/mL in the assay with SK-MEL-2.

`CO[C@@H]1[C@@H](O)[C@H](O[C@@H]2[C@@H](O)[C@H](O[C@H]3[C@H](O)[C@@H](O)[C@H](O[C@H]4[C@H](O[C@H]5CC[C@]6(C)[C@@H]7CC[C@]89C(=O)O[C@@](C)(/C=C\C=C(C)C)[C@@]8(O)[C@@H](OC(C)=O)C[C@@]9(C)C7=CC[C@H]6C5(C)C)OC[C@@H](OS(=O)(=O)[O-])[C@@H]4O)O[C@@H]3CO)OC[C@H]2O)O[C@H](CO)[C@H]1O.[Na+]` [LNTERCEDENSIDE D]: the EC50 was 1.8 µg/mL with A549; 3.3 µg/mL in the assay with PC-3; 2.4 µg/mL with MCF7; 3.7 µg/mL in the assay with KB; > 5 µg/mL in the assay with CAKI-1; 2.9 µg/mL with HCT-8. The EC50 in [1] was found to be 4.1 µg/mL; in assay [2], 4.3 µg/mL; in the assay on 1A9 it was 2.4 µg/mL; in the assay on SK-MEL-2 it was 4.2 µg/mL.

With `CO[C@@H]1[C@@H](O)[C@H](O[C@@H]2[C@@H](O)[C@H](O[C@@H]3CO[C@@H](O[C@H]4[C@H](O[C@H]5CC[C@]6(C)[C@@H]7CC[C@]89C(=O)O[C@@](C)(/C=C\C=C(C)C)C8[C@@H](OC(C)=O)C[C@@]9(C)C7=CC[C@H]6C5(C)C)OC[C@@H](OS(=O)(=O)[O-])[C@@H]4O)[C@H](O)[C@H]3O)OC[C@H]2O)O[C@H](CO)[C@H]1O.[Na+]` (stereo not given in full) [LNTERCEDENSIDE G], the EC50 in the assay on A549 was found to be 1.6 µg/mL; in the assay on PC-3, 2 µg/mL; in the assay on MCF7 it was 2 µg/mL; with KB, 3.3 µg/mL; in the assay with CAKI-1, 3.8 µg/mL; in the assay on HCT-8, 1.8 µg/mL. The EC50 in [1] was found to be 3.3 µg/mL; in assay [2], 3.9 µg/mL; in the assay with 1A9, 1.9 µg/mL; in the assay on SK-MEL-2, 2.4 µg/mL.
